Test results from patent US20250368649A1, “TETRAHYDROPYRIDOPYRIMIDINE PAN-KRAS INHIBITORS” (Mirati Therapeutics, Inc., priority 2022, published 2025).

Assays:
[1] = target: KRas WT (Homo sapiens, UniProt P01116); test: KRas binding assay (TR-FRET displacement), KRas WT; details: TR-FRET displacement
[2] = target: KRas G12C (Homo sapiens, UniProt P01116, G12C); assay type: binding; details: TR-FRET displacement, read-out: Binding to KRas (IC50 nM) G12C
[3] = target: KRas G12S (Homo sapiens, UniProt P01116, G12S); assay type: binding; details: TR-FRET displacement, read-out: Binding to KRas (IC50 nM) G12S
KRas G12S, sequence (P01116 1-169 isoform P01116-2 G12S): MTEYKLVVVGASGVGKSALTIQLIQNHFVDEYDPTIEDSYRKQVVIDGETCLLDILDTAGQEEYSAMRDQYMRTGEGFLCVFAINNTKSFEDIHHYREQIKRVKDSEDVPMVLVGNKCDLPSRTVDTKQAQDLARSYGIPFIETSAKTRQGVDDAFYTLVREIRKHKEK

[4] = target: KRas G13D (Homo sapiens, UniProt P01116, G13D); assay type: binding; details: TR-FRET displacement, read-out: Binding to KRas (IC50 nM) G13D
KRas G13D, sequence (P01116 1-169 isoform P01116-2 G13D): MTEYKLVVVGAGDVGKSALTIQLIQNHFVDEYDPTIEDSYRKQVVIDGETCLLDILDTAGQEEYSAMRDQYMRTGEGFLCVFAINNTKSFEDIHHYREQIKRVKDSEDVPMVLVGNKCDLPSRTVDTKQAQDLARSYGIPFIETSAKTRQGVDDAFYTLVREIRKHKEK

[5] = tested on: H358 cells; test: Inhibition of KRas-mediated phosphorylation of ERK (Cisbio HTRF pERK), H358 cells; assay type: cell-based; details: Homo sapiens, NCI-H358, single point at 100 nM, 3 hrs compound incubation
[6] = target: KRas Q61H (Homo sapiens, UniProt P01116, Q61H); test: KRas binding assay (TR-FRET displacement), KRas Q61H; details: TR-FRET displacement
KRas Q61H, sequence (P01116 1-169 isoform P01116-2 Q61H): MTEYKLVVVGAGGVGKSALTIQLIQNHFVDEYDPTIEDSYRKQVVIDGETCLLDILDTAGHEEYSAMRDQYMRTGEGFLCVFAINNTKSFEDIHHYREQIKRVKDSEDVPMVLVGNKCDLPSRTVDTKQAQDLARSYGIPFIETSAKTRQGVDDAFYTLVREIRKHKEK

[7] = target: KRas G12A (Homo sapiens, UniProt P01116, G12A); assay type: binding; details: TR-FRET displacement, read-out: Binding to KRas (IC50 nM) G12A
KRas G12A, sequence (P01116 1-169 isoform P01116-2 G12A): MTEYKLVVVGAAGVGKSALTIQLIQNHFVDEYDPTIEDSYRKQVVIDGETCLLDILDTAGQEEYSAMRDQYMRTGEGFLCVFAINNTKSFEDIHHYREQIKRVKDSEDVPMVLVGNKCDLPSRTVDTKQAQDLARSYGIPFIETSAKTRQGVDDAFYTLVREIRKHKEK

[8] = tested on: H727 cells; test: Inhibition of KRas-mediated phosphorylation of ERK (Cisbio HTRF pERK), H727 cells; assay type: cell-based; details: Homo sapiens; for IC50: NCI-H727, 3 h, 3 hr compound incubation, Cisbio pERK HTRF; for inhibition at 0.1 µM: NCI-H727, single point at 100 nM, 3 hrs compound incubation
[9] = target: KRas G12V (Homo sapiens, UniProt P01116, G12V); test: biochemical; details: Binding to KRas (IC50 nM) G12V, TR-FRET displacement, KRas G12V
KRas G12V, sequence (P01116 1-169 isoform P01116-2 G12V): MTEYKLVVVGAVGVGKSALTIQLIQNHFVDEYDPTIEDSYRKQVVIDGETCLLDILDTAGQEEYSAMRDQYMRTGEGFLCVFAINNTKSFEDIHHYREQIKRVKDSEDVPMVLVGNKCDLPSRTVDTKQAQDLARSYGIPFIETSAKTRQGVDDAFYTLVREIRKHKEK

[10] = tested on: ASPC1 cells; test: Inhibition of KRas-mediated phosphorylation of ERK (Cisbio HTRF pERK), ASPC1 cells; assay type: cell-based; details: Homo sapiens, AsPC-1 cells; for IC50: ASPC1, 3 h, 3 hr compound incubation, Cisbio pERK HTRF; for inhibition at 0.1 µM: ASPC1, single point at 100 nM, 3 hrs compound incubation
[11] = tested on: A549 cells; test: Inhibition of KRas-mediated phosphorylation of ERK (Cisbio HTRF pERK), A549 cells; assay type: cell-based; details: Homo sapiens, single point at 100 nM, 3 hrs compound incubation
[12] = target: KRas G12D (Homo sapiens, UniProt P01116, G12D); test: biochemical; details: Binding to KRas (IC50 nM) G12D, TR-FRET displacement, KRas G12D
KRas G12D, sequence (P01116 1-169 isoform P01116-2 G12D): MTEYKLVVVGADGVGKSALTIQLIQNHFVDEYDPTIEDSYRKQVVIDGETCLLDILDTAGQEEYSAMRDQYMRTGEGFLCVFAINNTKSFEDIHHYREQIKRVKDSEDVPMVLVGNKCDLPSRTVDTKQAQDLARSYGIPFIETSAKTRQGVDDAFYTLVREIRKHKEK

[13] = target: KRas G12R (Homo sapiens, UniProt P01116, G12R); test: biochemical; details: Binding to KRas (IC50 nM) G12R, TR-FRET displacement, KRas G12R
KRas G12R, sequence (P01116 1-169 isoform P01116-2 G12R): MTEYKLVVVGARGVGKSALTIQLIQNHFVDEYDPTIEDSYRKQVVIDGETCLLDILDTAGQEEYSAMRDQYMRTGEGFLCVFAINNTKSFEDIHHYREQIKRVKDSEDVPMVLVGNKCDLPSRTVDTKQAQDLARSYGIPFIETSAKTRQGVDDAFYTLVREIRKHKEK

[14] = tested on: HCT116 cells; test: Inhibition of KRas-mediated phosphorylation of ERK (Cisbio HTRF pERK), HCT116 cells; assay type: cell-based; details: Homo sapiens, HCT-116, single point at 100 nM, 3 hrs compound incubation
[15] = tested on: H460 cells; test: Inhibition of KRas-mediated phosphorylation of ERK (Cisbio HTRF pERK), H460 cells; assay type: cell-based; details: Homo sapiens, NCI-H460, single point at 100 nM, 3 hrs compound incubation

KRas WT, sequence (P01116 1-169 isoform P01116-2): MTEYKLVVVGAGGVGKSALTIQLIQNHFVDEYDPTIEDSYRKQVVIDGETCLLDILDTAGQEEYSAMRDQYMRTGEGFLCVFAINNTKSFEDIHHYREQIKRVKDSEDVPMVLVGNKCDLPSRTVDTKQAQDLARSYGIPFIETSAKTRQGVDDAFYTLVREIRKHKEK
KRas G12C, sequence (P01116 1-169 isoform P01116-2 G12C): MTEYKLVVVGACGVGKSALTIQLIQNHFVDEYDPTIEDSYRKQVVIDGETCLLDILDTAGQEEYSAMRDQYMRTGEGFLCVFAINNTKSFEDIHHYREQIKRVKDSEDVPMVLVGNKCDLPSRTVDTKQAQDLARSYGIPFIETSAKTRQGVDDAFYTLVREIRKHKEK

## CN(C)C(=O)c1cc2n(n1)CCCN(c1nc(OCC34CCCN3CCC4)nc3c1CCN(c1cc(O)cc(Cl)c1C1CC1)C3)C2 [Example 437, 5-(7-(3-chloro-2-cyclopropyl-5-hydroxyphenyl)-2-((tetrahydro-1H-pyrrolizin-7a(5H)-yl)methoxy)-5,6,7,8-tetrahydropyrido[3,4-d]pyrimidin-4-yl)-N,N-dimethyl-5,6,7,8-tetrahydro-4H-pyrazolo[1,5-a][1,4]diazepine-2-carboxamide]
[1]
  IC50: 8 nM
[2]
  IC50: 4 nM
[3]
  IC50: 4 nM
[4]
  IC50: 14 nM
[5]
  inhibition at 0.1 µM: -16%
[6]
  IC50: 12 nM
[7]
  IC50: 7 nM
[8]
  IC50: 4480 nM
  inhibition at 0.1 µM: -2%
[9]
  IC50: < 2 nM
[10]
  IC50: 5200 nM
  inhibition at 0.1 µM: 2%
[11]
  inhibition at 0.1 µM: -10%
[12]
  IC50: < 2 nM
[13]
  IC50: 5 nM

## Oc1cc(Cl)c(C2CC2)c(N2CCc3c(nc(OCC45CCCN4CCC5)nc3N3CCC[C@]4(C3)C[C@H](O)C4)C2)c1 [Example 440, (2s,4r)-6-(7-(3-chloro-2-cyclopropyl-5-hydroxyphenyl)-2-((tetrahydro-1H-pyrrolizin-7a(5H)-yl)methoxy)-5,6,7,8-tetrahydropyrido[3,4-d]pyrimidin-4-yl)-6-azaspiro[3.5]nonan-2-ol]
[1]
  IC50: 46 nM
[2]
  IC50: 30 nM
[3]
  IC50: 41 nM
[4]
  IC50: 73 nM
[5]
  inhibition at 0.1 µM: -1%
[6]
  IC50: 63 nM
[7]
  IC50: 46 nM
[8]
  IC50: 6510 nM
  inhibition at 0.1 µM: -10%
[9]
  IC50: 13 nM
[10]
  IC50: > 10000 nM
  inhibition at 0.1 µM: -10%
[11]
  inhibition at 0.1 µM: -6%
[12]
  IC50: 44 nM
[13]
  IC50: 36 nM

## Oc1cc(Cl)c(C2CC2)c(N2CCc3c(nc(OCC45CCCN4CCC5)nc3N3CCC[C@]4(C3)C[C@@H](O)C4)C2)c1 [Example 441, (2r,4s)-6-(7-(3-chloro-2-cyclopropyl-5-hydroxyphenyl)-2-((tetrahydro-1H-pyrrolizin-7a(5H)-yl)methoxy)-5,6,7,8-tetrahydropyrido[3,4-d]pyrimidin-4-yl)-6-azaspiro[3.5]nonan-2-ol]
[1]
  IC50: 19 nM
[2]
  IC50: 11 nM
[3]
  IC50: 15 nM
[4]
  IC50: 27 nM
[5]
  inhibition at 0.1 µM: 11%
[6]
  IC50: 21 nM
[7]
  IC50: 19 nM
[8]
  IC50: 5710 nM
  inhibition at 0.1 µM: -17%
[9]
  IC50: 8 nM
[10]
  IC50: > 10000 nM
  inhibition at 0.1 µM: 9%
[11]
  inhibition at 0.1 µM: -33%
[12]
  IC50: 24 nM
[13]
  IC50: 14 nM

## Cc1cc2[nH]ncc2c(N2CCc3c(nc(OCC45CCCN4CCC5)nc3N3CC4CC(O)C(C4)C3)C2)c1C (stereo not shown) [Example 457, 3-(7-(5,6-dimethyl-1H-indazol-4-yl)-2-((hexahydro-1H-pyrrolizin-7a-yl)methoxy)-5,6,7,8-tetrahydropyrido[3,4-d]pyrimidin-4-yl)-3-azabicyclo[3.2.1]octan-6-ol]
[1]
  IC50: 1590 nM
[2]
  IC50: 1910 nM
[3]
  IC50: 1270 nM
[4]
  IC50: 1870 nM
[6]
  IC50: 2190 nM
[7]
  IC50: 1250 nM
[8]
  IC50: > 10000 nM
[9]
  IC50: 805 nM
[10]
  IC50: > 10000 nM
[12]
  IC50: 3560 nM
[13]
  IC50: 692 nM

## Cc1cc2[nH]ncc2c(N2CCc3c(nc(OCC45CCCN4CCC5)nc3N3CC4C(=O)NC(=O)C4C3)C2)c1C (stereo not shown) [Example 458, 5-(7-(5,6-dimethyl-1H-indazol-4-yl)-2-((hexahydro-1H-pyrrolizin-7a-yl)methoxy)-5,6,7,8-tetrahydropyrido[3,4-d]pyrimidin-4-yl)tetrahydropyrrolo[3,4-c]pyrrole-1,3(2H,3aH)-dione]
[1]
  IC50: 143 nM
[2]
  IC50: 153 nM
[3]
  IC50: 52 nM
[4]
  IC50: 168 nM
[6]
  IC50: 179 nM
[7]
  IC50: 148 nM
[8]
  IC50: > 10000 nM
[9]
  IC50: 76 nM
[10]
  IC50: > 10000 nM
[12]
  IC50: 48 nM
[13]
  IC50: 145 nM

## Cc1cc2[nH]ncc2c(N2CCc3c(nc(OCC45CCCN4CCC5)nc3N3CCCC4(C3)NC(=O)NC4=O)C2)c1C (stereo not shown) [Example 459, 7-(7-(5,6-dimethyl-1H-indazol-4-yl)-2-((hexahydro-1H-pyrrolizin-7a-yl)methoxy)-5,6,7,8-tetrahydropyrido[3,4-d]pyrimidin-4-yl)-1,3,7-triazaspiro[4.5]decane-2,4-dione]
[1]
  IC50: 10 nM
[2]
  IC50: 8 nM
[3]
  IC50: 11 nM
[4]
  IC50: 9 nM
[6]
  IC50: 8 nM
[7]
  IC50: 11 nM
[8]
  IC50: > 10000 nM
[9]
  IC50: 8 nM
[10]
  IC50: > 10000 nM
[12]
  IC50: 16 nM
[13]
  IC50: 11 nM

## Cc1cc2[nH]ncc2c(N2CCc3c(nc(OCC45CCCN4CCC5)nc3N3CCOCC(C)(O)C3)C2)c1C (stereo not shown) [Example 460, 4-(7-(5,6-dimethyl-1H-indazol-4-yl)-2-((hexahydro-1H-pyrrolizin-7a-yl)methoxy)-5,6,7,8-tetrahydropyrido[3,4-d]pyrimidin-4-yl)-6-methyl-1,4-oxazepan-6-ol]
[1]
  IC50: 137 nM
[2]
  IC50: 146 nM
[3]
  IC50: 173 nM
[4]
  IC50: 169 nM
[6]
  IC50: 188 nM
[7]
  IC50: 142 nM
[8]
  IC50: 5360 nM
[9]
  IC50: 108 nM
[10]
  IC50: 1620 nM
[12]
  IC50: 67 nM
[13]
  IC50: 216 nM

## Cc1cc2[nH]ncc2c(N2CCc3c(nc(OCC45CCCN4CCC5)nc3N3CCCC4(CNC(=O)N4)C3)C2)c1C (stereo not shown) [Example 461, 7-(7-(5,6-dimethyl-1H-indazol-4-yl)-2-((hexahydro-1H-pyrrolizin-7a-yl)methoxy)-5,6,7,8-tetrahydropyrido[3,4-d]pyrimidin-4-yl)-1,3,7-triazaspiro[4.5]decan-2-one]
[1]
  IC50: 23 nM
[2]
  IC50: 19 nM
[3]
  IC50: 23 nM
[4]
  IC50: 26 nM
[6]
  IC50: 26 nM
[7]
  IC50: 22 nM
[8]
  IC50: > 10000 nM
[9]
  IC50: 12 nM
[10]
  IC50: > 10000 nM
[12]
  IC50: 11 nM
[13]
  IC50: 22 nM

## O=C1NC(=O)[C@]2(CCCN(c3nc(OCC45CCCN4CCC5)nc4c3CCN(c3c(C5CC5)c(Cl)cc5[nH]ncc35)C4)C2)N1 [Example 471, (R)-7-(7-(6-chloro-5-cyclopropyl-1H-indazol-4-yl)-2-((hexahydro-1H-pyrrolizin-7a-yl)methoxy)-5,6,7,8-tetrahydropyrido[3,4-d]pyrimidin-4-yl)-1,3,7-triazaspiro[4.5]decane-2,4-dione]
[1]
  IC50: < 2 nM
[14]
  inhibition at 0.1 µM: -3%
[2]
  IC50: < 2 nM
[3]
  IC50: < 2 nM
[4]
  IC50: < 2 nM
[15]
  inhibition at 0.1 µM: -3%
[6]
  IC50: < 2 nM
[7]
  IC50: < 2 nM
[8]
  IC50: 2880 nM
[9]
  IC50: < 2 nM
[10]
  IC50: 5320 nM
[12]
  IC50: < 2 nM
[13]
  IC50: < 2 nM

## CN1CCC[C@H]1COc1nc2c(c(N3CCCC4(CC(O)C4)C3)n1)CCN(c1cccc3cccc(Cl)c13)C2 (stereo partly drawn) [Example 484, (S)-6-(7-(8-chloronaphthalen-1-yl)-2-((1-methylpyrrolidin-2-yl)methoxy)-5,6,7,8-tetrahydropyrido[3,4-d]pyrimidin-4-yl)-6-azaspiro[3.5]nonan-2-ol]
[1]
  IC50: 2960 nM
[2]
  IC50: 1540 nM
[3]
  IC50: 2550 nM
[4]
  IC50: 4430 nM
[6]
  IC50: 3610 nM
[7]
  IC50: 2540 nM
[8]
  IC50: > 10000 nM
[9]
  IC50: 1180 nM
[10]
  IC50: > 10000 nM
[12]
  IC50: 3120 nM
[13]
  IC50: 1810 nM
